Measurements as given in patent US20050107376A1, “Fungicidal mixtures based on prothioconazole” (priority 2002, published 2005).

Assays:
[1] = tested on: Erysiphe [syn. Blumeria] graminis forma specialis. tritici; assay: Activity against mildew of wheat (protective spray, wheat seedlings cultivar Kanzler); assay type: in vivo; settings: 7 days, control 77% infestation
Experimental: (§1) The active compounds, separately or together, were formulated as a 10% emulsion in a mixture of 63% by weight of cyclohexanone and 27% by weight of emulsifier, and diluted with water to the desired concentration.
(§2) Evaluation was carried out by determining the infected leaf areas in percent. These percentages were converted into efficacies. The efficacy (W) was calculated as follows using Abbot's formula: [formula] • α corresponds to the fungal infection of the treated plants in % and • β corresponds to the fungal infection of the untreated (control) plants in %
(§3) An efficacy of 0 means that the infection level of the treated plants corresponds to that of the untreated control plants; an efficacy of 100 means that the treated plants were not infected.
(§4) The expected efficacies of the mixtures of the active compounds were determined using Colby's formula [R. S. Colby, Weeds 15, 20-22 (1967)] and compared with the observed efficacies. Colby's formula: E x+y−x•y/100 • E expected efficacy, expressed in % of the untreated control, when using the mixture of the active compounds A and B at the concentrations a and b • x efficacy, expressed in % of the untreated control, when using active compound A at a concentration of a • y efficacy, expressed in % of the untreated control, when using active compound B at a concentration of b.
Leaves of wheat seedlings of the cultivar “Kanzler”, which had been grown in pots, were sprayed to runoff point with an aqueous suspension having the concentration of active compound stated below. The suspension or emulsion was prepared from a stock solution with 10% of active compound in a mixture comprising 85% of cyclohexanone and 5% of emulsifier. 24 hours after the spraycoating had dried on, the plants were dusted with spores of mildew of wheat (Erysiphe [syn. Blumeria] graminis forma specialis. tritici). The test plants were then placed in a greenhouse at 20-24° C. and 60-90% relative atmospheric humidity. After 7 days, the extent of the mildew development was determined visually in % infection of the total leaf area.
The visually determined values for the percentage of diseased leaf areas were converted into efficacies in % of the untreated control. An efficacy of 0 means the same disease level as in the untreated control, an efficacy of 100 means 0% disease. The expected efficacies for combinations of active compounds were determined using the abovementioned Colby formula and compared with the observed efficacies.

Puccinia recondita = assay: Curative activity against brown rust of wheat (wheat seedlings cultivar Kanzler); assay type: in vivo; settings: 7 days, control 90% infestation
Experimental: as §1, §2, §3, §4
Leaves of wheat seedlings of the cultivar “Kanzler”, which had been grown in pots, were dusted with spores of brown rust (Puccinia recondita). The pots were then placed in a chamber with high atmospheric humidity (90-95%), at 20-22° C. During this time, the spores germinated and the germinal tubes penetrated into the leaf tissue. The next day, the infected plants were sprayed to runoff point with an aqueous suspension having the concentration of active compound stated below. The suspension or emulsion was prepared from a stock solution with 10% of active compound in a mixture comprising 85% of cyclohexanone and 5% of emulsifier. After the spray coating had dried on, the test plants were cultivated in a greenhouse at 20-22° C. in 65-70% relative atmospheric humidity for 7 days. The extent of the rust fungus development on the leaves was then determined.
The visually determined values for the percentage of diseased leaf areas were converted into efficacies in % of the untreated control. An efficacy of 0 means the same disease level as in the untreated control, an efficacy of 100 means 0% disease. The expected efficacies for active compound combinations were determined using the abovementioned Colby formula and compared with the observed efficacies.

Structure (SMILES): OC(Cc1ccccc1Cl)(Cn1nc[nH]c1=S)C1(Cl)CC1 (stereo not drawn) [Compound I, 2-[2-(1-chlorocyclopropyl)-3-(2-chlorophenyl)-2-hydroxy-propyl]-2,4-dihydro-[1,2,4]-triazole-3-thione]
- Efficacy in % of the untreated control ([1]; 0.25 ppm in the spray liquor): 0%
- Efficacy in % of the untreated control ([1]; 1 ppm in the spray liquor): 0%
- Efficacy in % of the untreated control (Puccinia recondita; 0.25 ppm in the spray liquor): 22%
- Efficacy in % of the untreated control (Puccinia recondita; 1 ppm in the spray liquor): 78%

Structure (SMILES): CC(Cc1ccc(C(C)(C)C)cc1)CN1C[C@@H](C)O[C@@H](C)C1 (stereo partly drawn) [Compound II, fenpropimorph]
- Efficacy in % of the untreated control ([1]; 0.15 ppm in the spray liquor): 0%
- Efficacy in % of the untreated control ([1]; 0.6 ppm in the spray liquor): 0%
- Efficacy in % of the untreated control ([1]; 2.5 ppm in the spray liquor): 74%
- Efficacy in % of the untreated control (Puccinia recondita; 0.15 ppm in the spray liquor): 0%
- Efficacy in % of the untreated control (Puccinia recondita; 0.6 ppm in the spray liquor): 0%
- Efficacy in % of the untreated control (Puccinia recondita; 2.5 ppm in the spray liquor): 22%

Structure (SMILES): CCCCCCCCCCCCCN1CC(C)OC(C)C1 (stereo not drawn) [Compound III, tridemorph]
- Efficacy in % of the untreated control ([1]; 0.15 ppm in the spray liquor): 0%
- Efficacy in % of the untreated control ([1]; 0.6 ppm in the spray liquor): 0%
- Efficacy in % of the untreated control ([1]; 2.5 ppm in the spray liquor): 48%
- Efficacy in % of the untreated control (Puccinia recondita; 0.15 ppm in the spray liquor): 0%
- Efficacy in % of the untreated control (Puccinia recondita; 0.6 ppm in the spray liquor): 0%
- Efficacy in % of the untreated control (Puccinia recondita; 2.5 ppm in the spray liquor): 0%

Structure (SMILES): CC(Cc1ccc(C(C)(C)C)cc1)CN1CCCCC1 (stereo not drawn) [Compound IV, fenpropidin]
- Efficacy in % of the untreated control ([1]; 0.15 ppm in the spray liquor): 0%
- Efficacy in % of the untreated control ([1]; 0.6 ppm in the spray liquor): 61%
- Efficacy in % of the untreated control (Puccinia recondita; 0.15 ppm in the spray liquor): 0%
- Efficacy in % of the untreated control (Puccinia recondita; 0.6 ppm in the spray liquor): 0%
- Efficacy in % of the untreated control (Puccinia recondita; 2.5 ppm in the spray liquor): 44%
